System: A549 human lung adenocarcinoma xenograft tumors
Experiment: A549 NSCLC xenograft tumor growth in Rag2 mice
Type: in vivo, female Rag2 mice
Experimental: The purpose of the study reported in this Example is to evaluate the activity of dianhydrogalactitol in in vivo models of drug-resistant NSCLC in comparison to other drugs, including cisplatin. Rag2 mice bearing subcutaneous human lung adenocarcinoma xenograft tumors of either TKI-resistant (H1975) or TKI-sensitive (A549) origin were treated.
Two human NSCLC cell lines, A549 (TKI-sensitive) and H1975 (TKI-resistant), were used as xenograft tumor models in female Rag2 mice. The mice were 6 to 8 weeks of age and weighed 18-23 grams. 10 mice were used per group.
Cisplatin was used in normal saline at a dose of 5 mg/kg. Administration was intravenous.
Dianhydrogalactitol was used in 0.9% sodium chloride for injection at 1.5 mg/kg to 6 mg/kg. Administration was intraperitoneal.
Treatment was initiated at a tumor volume of 100 mm^3 to 150 mm^3.
On day 0, tumor cells were implanted subcutaneously into mice in a volume of 50 μL in Matrigel™ using a 28-gauge needle; injection of the tumor cells was in the back of the mice. Mice were randomly assigned to groups based on tumor volume.
Tumor growth was monitored by measuring tumor dimensions with calipers beginning on the first day of treatment. Tumor length and width measurements were obtained each Monday, Wednesday, and Friday. Tumor volumes were calculated according to the equation L×W^2/2 with the length (in mm) being defined as the longer axis of the tumor. Animals were weighed at the time of tumor measurement. Tumors were allowed to grow to a maximum of 800 mm^3 before termination.

[1] = dianhydrogalactitol 1.5 mg/kg i.p. (group 3)
[2] = dianhydrogalactitol 3 mg/kg i.p. (group 4)

Substance: dianhydrogalactitol
- day on which a mean tumor volume of 200 mm^3 was observed [1]: 45 days
- day on which a mean tumor volume of 400 mm^3 was reached [1]: 67 days
- tumor doubling time [1]: 22
- number of animals remaining on study on day 70 (dianhydrogalactitol 1.5 mg/kg i.p. M, W, F for 3 weeks (group 3)): 7/10
- tumor growth delay compared to untreated controls (dianhydrogalactitol 3 mg/kg i.p.): 26 days
- day on which a mean tumor volume of 200 mm^3 was observed [2]: 42 days
- day on which a mean tumor volume of 400 mm^3 was reached [2]: 81 days
- tumor doubling time [2]: 39
- number of animals remaining on study on day 70 (dianhydrogalactitol 3 mg/kg i.p. M, W, F for 3 weeks (group 4)): 6/10
- day on which a mean tumor volume of 200 mm^3 was observed (dianhydrogalactitol 6 mg/kg i.p. (group 5)): 54 days
- number of animals remaining on study on day 70 (dianhydrogalactitol 6 mg/kg i.p. (group 5; stopped after 3 doses)): 8/10
